Laboratory results published in patent US20030055065A1, “Tricyclic amide and urea compounds useful for inhibition of G-protein function and for treatment of proliferative diseases” (priority 1993, published 2003).
“And” between values parts separate entries of the source, which are not always exact repeats. Equal entries are not always repeated. Where two headings read alike, the source gives them in different places. Marks after values point to notes of the source that are not given here.

Legend:
[1] = target: T1, farnesyl protein transferase (FPT), partially purified from rat brain (Rattus norvegicus, UniProt Q02293+Q04631); experiment: Inhibition of farnesyl protein transferase (transfer of [3H]farnesyl to Ras-CVLS); format: biochemical
T1 construct: were partially purified from rat brain by ammonium sulfate fractionation followed by Q-Sepharose
Outline: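 Partially purified farnesyl protein transferase with His6-tagged val12-Ha-Ras-CVLS substrate and [3H]farnesyl pyrophosphate, 30 min at room temperature. Stopped with SDS/TCA, precipitated Ras collected on GF/C filters; percent inhibition relative to DMSO vehicle control.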

[2] = test system: Normal human HEPM fibroblasts; experiment: Cell Mat Assay: density of mat cells (mIC50); format: cell-based
Outline: (§1)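 Serial compound dilutions added 24 h after planting T24-BAG4 cells onto a mat of normal cells, then 14 d colony growth; monolayers glutaraldehyde-fixed and tumor cells X-Gal stained. tIC50 and mIC50 from microscope counts of colonies, cells per colony and mat cell density.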

[3] = test system: Ras-CVLS processing in COS monkey kidney cells; experiment: COS cell assay: Ras-CVLS processing (Western blot); format: cell-based; conditions: COS cells, read-out: Inhibition of Ras Processing IC50
Outline: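 COS cells electroporated with Ras-CVLS (farnesyl transferase substrate) cDNA, with drug-containing fresh medium added at 24 h and cells examined at 48 h. TCA-precipitated cellular protein was resolved by SDS gel and immunoblotted with anti-p21 Ras monoclonal and HRP anti-rat IgG to monitor Ras processing.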

[4] = test system: T24-BAG4 human bladder carcinoma cells expressing an activated H-ras gene; experiment: Cell Mat Assay: tumor cell colony inhibition (tIC50); format: cell-based; conditions: inhibition of tumor cell growth
Outline: as §1

[5] = test system: M27 (mouse Lewis lung carcinoma); experiment: In vivo anti-tumor study, M27; design: species or system athymic nu/nu female mice; conditions: po; for Average % Tumor Inhibition: M27 tumor, 100 MPK; for percent inhibition of tumor growth relative to vehicle controls: s.c. tumor M27, BID, 1-7, ×4
From the text: In vivo Anti-tumor Studies

[6] = test system: SW620 (human colon adenocarcinoma [lymph node metastasis]); experiment: In vivo anti-tumor study, SW620; design: species or system athymic nu/nu female mice; percent inhibition of tumor growth relative to vehicle controls: concentration or dose not given beside the values; conditions: for Average % Tumor Inhibition / inhibition in vivo at 100 mg/kg: SW620 tumor, 10/wk; for percent inhibition of tumor growth relative to vehicle controls: s.c. tumor SW-620, BID; for inhibition in vivo at 100 mg/kg: Mus musculus
[7] = test system: C-f-1 (mouse fibroblast transformed with c-fos oncogene); experiment: In vivo anti-tumor study, C-f-1; design: species or system athymic nu/nu female mice; concentration or dose not given beside the values; conditions: s.c. tumor C-f-1, BID
[8] = test system: A431 (human epidermal carcinoma); experiment: In vivo anti-tumor study, A431; design: species or system athymic nu/nu female mice; concentration or dose not given beside the values; conditions: s.c. tumor A431, BID
[9] = target: T2, geranylgeranyl protein transferase (GGPT) I (Rattus norvegicus, UniProt P53610+Q04631); experiment: Inhibition of geranylgeranyl protein transferase I (Ras-CVLL as acceptor); format: biochemical; conditions: for IC50: enzyme inhibition
T2 construct: were partially purified from rat brain by ammonium sulfate fractionation followed by Q-Sepharose
Outline: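 Rat brain GGPT I, partially purified by ammonium sulfate fractionation and anion exchange, was assayed with [3H]geranylgeranyl pyrophosphate as isoprenoid donor. The acceptor was E. coli-expressed His6-tagged val12-Ha-Ras ending in CVLL. The protocol otherwise matched the farnesyl protein transferase assay.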

[10] = Ras-CVLS farnesylation, partially purified rat brain FPT, read-out: FPT IC50
[11] = enzyme inhibition, read-out: FPT IC50

T2 sequence (P53610 whole entry, one chain of several): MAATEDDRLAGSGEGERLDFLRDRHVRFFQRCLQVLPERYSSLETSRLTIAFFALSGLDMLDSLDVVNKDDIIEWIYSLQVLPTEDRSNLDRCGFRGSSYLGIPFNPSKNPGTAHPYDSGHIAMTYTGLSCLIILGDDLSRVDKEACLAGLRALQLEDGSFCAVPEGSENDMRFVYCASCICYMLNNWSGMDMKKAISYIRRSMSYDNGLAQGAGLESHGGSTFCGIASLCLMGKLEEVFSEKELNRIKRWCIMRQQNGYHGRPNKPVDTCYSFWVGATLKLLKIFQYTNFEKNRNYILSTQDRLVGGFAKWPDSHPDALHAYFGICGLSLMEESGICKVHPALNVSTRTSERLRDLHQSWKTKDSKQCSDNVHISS
T1 sequence (Q02293 whole entry, one chain of several): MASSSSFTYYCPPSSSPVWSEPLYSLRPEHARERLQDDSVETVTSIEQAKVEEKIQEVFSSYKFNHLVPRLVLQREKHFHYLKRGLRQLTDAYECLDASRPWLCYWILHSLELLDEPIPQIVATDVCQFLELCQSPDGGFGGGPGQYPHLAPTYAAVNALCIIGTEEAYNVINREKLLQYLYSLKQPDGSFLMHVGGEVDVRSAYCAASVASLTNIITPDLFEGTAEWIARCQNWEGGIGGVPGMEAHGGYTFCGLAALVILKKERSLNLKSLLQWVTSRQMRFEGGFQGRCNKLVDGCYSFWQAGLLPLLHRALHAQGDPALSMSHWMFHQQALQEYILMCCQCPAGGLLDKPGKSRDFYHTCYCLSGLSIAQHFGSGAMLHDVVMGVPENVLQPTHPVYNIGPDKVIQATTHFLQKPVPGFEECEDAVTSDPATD

| SMILES | IC50 [1, 10] | IC50 ([4]; Homo sapiens) [µM] | IC50 [1, 11] [µM] | IC50 ([2]; Homo sapiens, Fibroblast) [µM] | IC50 ([3]; Primates, COS) [µM] | Average % Tumor Inhibition ([5]; 10/wk, x3) [%] | percent inhibition of tumor growth relative to vehicle controls ([7]; po, 1-5, ×4) [%] | percent inhibition of tumor growth relative to vehicle controls ([6]; po, 1-5, ×4) [%] | inhibition in vivo at 100 mg/kg ([6]; SW-620, po, 100 MPK, po, x4) [%] | also measured |
| --- | --- | --- | --- | --- | --- | --- | --- | --- | --- | --- |
| S=C(c1ccncc1)N1CCC(=C2c3ccc(Cl)cc3CCc3cccnc32)CC1 [Example 88] | 1 µM | – | – | – | – | – | – | – | – | IC50 [2]: > 50 µM; IC50 [3]: > 12 µM; Average % Tumor Inhibition ([6]; 25 MPK, po, x4, listed as Ex. 88, 25 mg/kg): 4% and 0%; Average % Tumor Inhibition ([6]; 50 MPK, po, x4): 30%; Average % Tumor Inhibition ([6]; 100 MPK, po, x4, listed as Ex. 88, 100 mg/kg): 43.25* % and 38% and 37% and 27.4* % and 28%; Average % Tumor Inhibition ([5]; 10/wk, x4): 19% |
| O=C(Cc1ccncc1)N1CCN(C2c3ccc(Cl)cc3CCc3cccnc32)CC1 (stereo not shown) [Example 75] | – | 2.5 | – | > 50 | – | – | 20 | 43.4 | – | percent inhibition of tumor growth relative to vehicle controls ([8]; po, 1-6, ×4): 34.5%; IC50 ([1]; FPT IC50, Ras-CVLS farnesylation, partially purified rat brain FPT): 0.36 µM and 0.16 µM; Average % Tumor Inhibition ([5]; 10/wk, x4): 0% |
| O=C(Cc1cccnc1)N1CCC(=C2c3ccc(Cl)cc3CCc3cccnc32)CC1 [Example 2, 8-chloro-11-[1-(1-(3-pyridyl)-methylcarbonyl)-4-piperidylidene]-6,11-dihydro-5H-benzo[5,6]cyclohepta[1,2-b]-pyridine] | 0.47 µM | 25 | 0.47 | > 50 | 3.7 | – | 9.6 | 33.5 | 1 | percent inhibition of tumor growth relative to vehicle controls ([7]; ip, 1-5, ×2): 8%; percent inhibition of tumor growth relative to vehicle controls ([8]; po, 1-5, ×4): 45.6% and 36.5%; inhibition in vivo at 100 mg/kg ([6]; SW-620, ip, 100 MPK, ip, x2): 0%; inhibition in vivo at 100 mg/kg ([6]; SW-620, po, 100 MPK, po, x2): 0%; percent inhibition of tumor growth relative to vehicle controls ([6]; ip, 1-5, ×4): 0%; percent inhibition of tumor growth relative to vehicle controls ([6]; po, 1-5, ×2): 46.1%; selective for FPT inhibition (over GGPT) ([9]; FPT versus GGPT): at least 98 fold; inhibition at 46 µM ([9]; at 46 μM, Ras-CVLL as isoprenoid acceptor): 25%; IC50 [9]: > 46 µM; Average % Tumor Inhibition ([5]; 14/wk, x4): 45%; percent inhibition of tumor growth relative to vehicle controls [5]: 61.2% |
| Cc1ccc(CC(=O)N2CCC(=C3c4ccc(Cl)cc4CCc4cccnc43)CC2)cc1 [Example 47] | 1.3 µM and 1.01 µM | – | – | – | – | 19 | – | – | – | IC50 [2]: > 50 µM; IC50 [3]: 11.1 µM; IC50 [4]: 12.5 µM |

Continued, in another order:

| IC50 [1, 10] | IC50 ([4]; Homo sapiens) [µM] | IC50 [1, 11] [µM] | SMILES | IC50 ([2]; Homo sapiens, Fibroblast) [µM] | IC50 ([3]; Primates, COS) [µM] | Average % Tumor Inhibition ([5]; 10/wk, x3) [%] | percent inhibition of tumor growth relative to vehicle controls ([7]; po, 1-5, ×4) [%] | percent inhibition of tumor growth relative to vehicle controls ([6]; po, 1-5, ×4) [%] | inhibition in vivo at 100 mg/kg ([6]; SW-620, po, 100 MPK, po, x4) [%] | also measured |
| --- | --- | --- | --- | --- | --- | --- | --- | --- | --- | --- |
| 1.2 µM and 0.87 µM | 6.3 | – | O=C(Cc1cccc([N+](=O)[O-])c1)N1CCC(=C2c3ccc(Cl)cc3CCc3cccnc32)CC1 [Example 45] | > 50 | 4.2 | 0 | – | – | – | melting point: 94.3 to 95.5 °C |
| 2.3 µM | 50 | 2.3 | O=C(c1ccc(O)cc1)N1CCC(=C2c3ccc(Cl)cc3CCc3cccnc32)CC1 [Example 7] | 100 | – | – | 39.3 | 0 | 0 | percent inhibition of tumor growth relative to vehicle controls ([7]; ip, 1-5, ×2): 39.7%; percent inhibition of tumor growth relative to vehicle controls ([8]; ip, 1-5, ×4): 0%; percent inhibition of tumor growth relative to vehicle controls ([8]; po, 1-5, ×4): 29.1%; inhibition in vivo at 100 mg/kg ([6]; SW-620, po, 100 MPK, po, x2): 13%; percent inhibition of tumor growth relative to vehicle controls ([6]; ip, 1-5, ×4): 19.6%; percent inhibition of tumor growth relative to vehicle controls ([6]; po, 1-5, ×2): 48.6%; IC50 [9]: > 45 µM; Average % Tumor Inhibition ([5]; 14/wk, x4): 40%; percent inhibition of tumor growth relative to vehicle controls [5]: 58.2% |
| 2.5 µM | 12.5 | 2.5 | O=C(C(c1ccccc1)c1ccccc1)N1CCN(C2c3ccc(Cl)cc3CCc3cccnc32)CC1 (stereo not shown) [Example 79] | > 50 | 5.1 | – | 25 | 26.7 | – | percent inhibition of tumor growth relative to vehicle controls ([8]; po, 1-6, ×4): 0% |
| 3.5 µM and 2.7 µM | 6.3 | – | O=C(Cc1ccc(O)c(O)c1)N1CCC(=C2c3ccc(Cl)cc3CCc3cccnc32)CC1 [Example 127] | > 50 | – | 22 | – | – | 25 | – |
